{
  "source": "paper PMC2594009",
  "about": "(Structure (London, England : 1993), 2008)",
  "key": {"L26F AM2": {"tested_on": "L26F AM2", "type": "cell-based, influenza A virus", "details": "pH 5.5"}, "S31N AM2": {"tested_on": "S31N AM2", "type": "cell-based, influenza A virus", "details": "pH 5.5"}},
  "note": "“And” between values parts separate entries of the source, which are not always exact repeats. Equal entries are not always repeated. “Also recorded” adds a separate entry of the source.",
  "data": [
    {"smiles": "NC12CC3CC(CC(C3)C1)C2", "note": "[amantadine]", "values": [
      {"measurement": "inhibition of the inward current", "setting": "L26F AM2", "result": "47% and 46.8 ± 0.7%"},
      {"measurement": "reversibility of inhibition after removal of the drug", "setting": "L26F AM2", "result": "reversibly inhibited; also recorded: readily reversible"},
      {"measurement": "inhibition of the inward current", "setting": "S31N AM2", "result": "30% and 30.7 ± 1.8%"},
      {"measurement": "reversibility of inhibition after removal of the drug", "setting": "S31N AM2", "result": "immediately reversed; also recorded: highly reversible"}
    ]}
  ]
}
